From DBAASP
≈ marks a conversion by molar mass, not a printed value. Where “and” joins values, the source holds several entries; their conditions need not be identical. Equal entries are not always repeated.

Columns and labels:
Assay in all cases: ≥ marks a high value that may be exact or a test limit, other limits are often not marked, values filed in µg/mL are converted to µM
[1] = tested on: Escherichia coli ATCC 25922
[2] = tested on: Staphylococcus aureus ATCC 25923
[3] = tested on: Staphylococcus aureus ATCC 29213
Staphylococcus aureus = tested on: Staphylococcus aureus
Escherichia coli = tested on: Escherichia coli
[4] = tested on: Pseudomonas aeruginosa ATCC 27853
Pseudomonas aeruginosa = tested on: Pseudomonas aeruginosa

Structure (SMILES)	MIC [1]	MIC [2]	MIC [4]	also measured
CC[C@H](C)[C@H](NC(=O)[C@@H](N)Cc1ccccc1)C(=O)N[C@@H](CCCN=C(N)N)C(=O)N[C@@H](CO)C(=O)N[C@@H](CC(C)C)C(=O)N[C@@H](Cc1ccccc1)C(=O)N[C@@H](Cc1ccccc1)C(=O)N[C@@H](Cc1ccccc1)C(N)=O [FIRSLFFF]	> 100 µM	> 100 µM	–	–
CC(C)C[C@H](NC(=O)[C@H](CC(C)C)NC(=O)[C@H](CCCCN)NC(=O)[C@H](CCCCN)NC(=O)[C@H](CC(C)C)NC(=O)[C@H](Cc1ccccc1)NC(=O)[C@H](CCCCN)NC(=O)[C@H](CC(C)C)NC(=O)[C@@H](N)Cc1ccccc1)C(N)=O [FLKFLKKLL]	13.9 µM and 27.8 µM	–	–	–
CC[C@H](C)[C@H](NC(=O)[C@@H]1CCCN1C(=O)[C@H](CC(C)C)NC(=O)[C@@H](N)Cc1ccccc1)C(=O)N[C@@H](C)C(=O)N[C@@H](CO)C(=O)N[C@@H](CC(C)C)C(=O)N[C@@H](CC(C)C)C(=O)NCC(=O)N[C@@H](CCCCN)C(=O)N[C@@H](Cc1ccc(O)cc1)C(=O)N[C@@H](CC(C)C)C(=O)O [FLPIASLLGKYL]	–	–	–	MIC (Staphylococcus aureus): > 200 µM
CC[C@H](C)[C@H](NC(=O)CN)C(=O)NCC(=O)N[C@@H](C)C(=O)N[C@H](C(=O)N[C@@H](CC(C)C)C(=O)N[C@@H](CCCCN)C(=O)N[C@H](C(=O)N[C@@H](CC(C)C)C(=O)N[C@@H](C)C(=O)N[C@@H](CC(C)C)C(=O)N[C@H](C(=O)N[C@@H](CO)C(=O)N[C@@H](Cc1c[nH]c2ccccc12)C(=O)N[C@H](C(=O)N[C@@H](CCCCN)C(=O)N[C@@H](CCCN=C(N)N)C(=O)N[C@@H](CCCCN)C(=O)N[C@@H](CCCN=C(N)N)C(N)=O)[C@@H](C)CC)[C@@H](C)CC)C(C)C)C(C)C [GIGAVLKVLALISWIKRKR]	–	5.6 µM (≈ 11.9 µg/mL)	11.2 µM (≈ 23.9 µg/mL)	MIC (Escherichia coli): 11.2 µM (≈ 23.9 µg/mL)
NCC(=O)N[C@@H](CCCN=C(N)N)C(=O)N[C@@H](CCCN=C(N)N)C(=O)N1CCC[C@H]1C(=O)N[C@@H](CCCN=C(N)N)C(=O)N1CCC[C@H]1C(=O)N[C@@H](CCCN=C(N)N)C(=O)N1CCC[C@H]1C(=O)N[C@@H](CCCN=C(N)N)C(=O)N1CCC[C@H]1C(=O)N[C@@H](Cc1ccccc1)C(=O)N[C@@H](Cc1ccccc1)C(=O)N[C@@H](Cc1ccccc1)C(=O)N[C@@H](Cc1ccccc1)C(=O)O [GRRPRPRPRPFFFF]	160 µM (≈ 293 µg/mL)	–	80 µM (≈ 147 µg/mL)	MIC [3]: 40 µM (≈ 73.3 µg/mL)
CC[C@H](C)[C@H](NC(=O)[C@H](Cc1ccccc1)NC(=O)[C@H](CO)NC(=O)[C@H](CCCCN)NC(=O)[C@H](Cc1c[nH]c2ccccc12)NC(=O)[C@@H](N)CCCCN)C(=O)N[C@@H](CCCCN)C(=O)N[C@@H](CCCCN)C(=O)N[C@@H](CC(C)C)C(=O)N[C@@H](C)C(=O)N[C@@H](CO)C(=O)N[C@@H](CCCCN)C(=O)N[C@@H](Cc1ccccc1)C(=O)N[C@@H](CC(C)C)C(=O)N[C@@H](Cc1cnc[nH]1)C(=O)N[C@@H](CO)C(=O)N[C@@H](C)C(=O)N[C@@H](CCCCN)C(=O)N[C@@H](CCCCN)C(=O)N[C@@H](Cc1ccccc1)C(N)=O [KWKSFIKKLASKFLHSAKKF]	–	–	–	MIC (Pseudomonas aeruginosa): 5.16 µM (≈ 12.5 µg/mL)
CC[C@H](C)[C@H](NC(=O)[C@H](CCSC)NC(=O)[C@H](C)NC(=O)[C@@H]1CCCN1C(=O)[C@@H](NC(=O)[C@@H](NC(=O)[C@H](CCCCN)NC(=O)[C@@H](NC(=O)[C@H](CC(C)C)NC(=O)CNC(=O)CNC(=O)[C@@H](N)CC(C)C)[C@@H](C)CC)[C@@H](C)CC)C(C)C)C(=O)N[C@H]1CSSC[C@@H](C(=O)O)NC(=O)[C@H](CCCCN)NC(=O)[C@H](CCCCN)NC(=O)[C@H]([C@@H](C)O)NC(=O)[C@H](C(C)C)NC(=O)[C@H](C)NC1=O [LGGLIKIVPAMICAVTKKC]	131 µM (≈ 256 µg/mL)	–	> 131 µM	MIC [3]: 131 µM (≈ 256 µg/mL)
CC(C)[C@H](NC(=O)[C@H](Cc1c[nH]c2ccccc12)NC(=O)[C@H](C)NC(=O)[C@@H](N)CCCN=C(N)N)C(=O)N[C@@H](C)C(=O)N[C@@H](Cc1c[nH]c2ccccc12)C(=O)N[C@@H](CCCN=C(N)N)C(=O)N[C@@H](CC(N)=O)C(=O)N[C@@H](CCCN=C(N)N)C(N)=O [RAWVAWRNR]	412 µM (≈ 500 µg/mL)	–	–	MIC [3]: 206 µM (≈ 250 µg/mL)
CC[C@H](C)[C@H](NC(=O)[C@H](CC(C)C)NC(=O)[C@@H](NC(=O)[C@H](CC(C)C)NC(=O)[C@H](CO)NC(=O)[C@H](CCCCN)NC(=O)[C@@H](NC(=O)[C@H](CC(C)C)NC(=O)[C@H](CCCCN)NC(=O)[C@H](CC(C)C)NC(=O)[C@H](CO)NC(=O)[C@H](CCCN=C(N)N)NC(=O)[C@H](CCCCN)NC(=O)[C@@H](NC(=O)[C@H](Cc1ccccc1)NC(=O)[C@@H](N)CO)[C@@H](C)CC)[C@@H](C)CC)C(C)C)C(=O)N[C@@H](CCCCN)C(=O)O [SFIKRSLKLIKSLVLIK]	–	–	–	MIC (Staphylococcus aureus): 4 µM (≈ 7.95 µg/mL)
CC(C)C[C@H](NC(=O)[C@H](Cc1ccccc1)NC(=O)[C@@H]1CCCN1C(=O)[C@H](Cc1c[nH]c2ccccc12)NC(=O)[C@H](Cc1c[nH]c2ccccc12)NC(=O)[C@H](Cc1c[nH]c2ccccc12)NC(=O)[C@@H]1CCCN1C(=O)[C@H](Cc1ccccc1)NC(=O)[C@H](CCCCN)NC(=O)[C@H](CCCCN)NC(=O)[C@@H](N)C(C)C)C(=O)N[C@@H](CCCCN)C(=O)N[C@@H](CCCCN)C(N)=O [VKKFPWWWPFLKK]	16 µM (≈ 28.6 µg/mL)	–	–	MIC (Escherichia coli): 11.2 µM (≈ 20 µg/mL); MIC (Staphylococcus aureus): 5.59 µM (≈ 9.99 µg/mL)
CC(C)C[C@H](NC(=O)[C@H](Cc1ccccc1)NC(=O)[C@@H]1CCCN1C(=O)[C@H](Cc1ccc(O)cc1)NC(=O)[C@H](Cc1c[nH]c2ccccc12)NC(=O)[C@H](Cc1c[nH]c2ccccc12)NC(=O)[C@@H]1CCCN1C(=O)[C@H](Cc1ccccc1)NC(=O)[C@H](CCCN=C(N)N)NC(=O)[C@H](CCCN=C(N)N)NC(=O)[C@@H](N)C(C)C)C(=O)N[C@@H](CCCN=C(N)N)C(=O)N[C@@H](CCCN=C(N)N)C(N)=O [VRRFPWWYPFLRR]	4 µM (≈ 7.51 µg/mL)	–	–	–
NC(=O)[C@H](Cc1c[nH]c2ccccc12)NC(=O)[C@H](CCCN=C(N)N)NC(=O)[C@H](Cc1ccc(O)cc1)NC(=O)[C@H](CCCN=C(N)N)NC(=O)[C@@H](N)Cc1c[nH]c2ccccc12 [WRYRW]	115 µM (≈ 99.9 µg/mL)	57.7 µM (≈ 49.9 µg/mL)	–	–

Further lines, with some results ahead:

MIC [1]	MIC [2]	MIC [4]	Structure (SMILES)	also measured
24.6 µM (≈ 31.9 µg/mL)	49 µM (≈ 63.6 µg/mL)	–	CC(C)C[C@H](NC(=O)CNC(=O)[C@H](CCCCN)NC(=O)CNC(=O)[C@H](C)NC(=O)[C@H](C)N)C(=O)N[C@H](C(=O)N[C@@H](CO)C(=O)N[C@@H](CC(N)=O)C(=O)N[C@@H](CC(C)C)C(=O)N[C@@H](CC(C)C)C(=O)N[C@@H](CCC(=O)O)C(=O)N[C@@H](CCCCN)C(N)=O)C(C)C [AAGKGLVSNLLEK]	–
10 µM (≈ 16.6 µg/mL)	–	–	CC[C@H](C)[C@H](NC(=O)[C@H](CCCN=C(N)N)NC(=O)[C@H](CCC(N)=O)NC(=O)[C@@H](NC(=O)CNC(=O)[C@H](CCCN=C(N)N)NC(=O)[C@H](CCCCN)NC(=O)[C@@H](N)Cc1ccccc1)C(C)C)C(=O)N[C@@H](CCCCN)C(=O)N[C@@H](CC(=O)O)C(=O)N[C@@H](Cc1ccccc1)C(=O)N[C@@H](CC(C)C)C(=O)N[C@@H](CCCN=C(N)N)C(=O)O [FKRGVQRIKDFLR]	MIC [3]: > 40 µM
–	14.3 µM (≈ 16 µg/mL)	–	CC[C@H](C)[C@H](NC(=O)[C@H](CCCCN)NC(=O)[C@H](CC(C)C)NC(=O)[C@@H](N)Cc1ccccc1)C(=O)N[C@@H](CC(C)C)C(=O)N[C@@H](CCCCN)C(=O)N[C@@H](CCCCN)C(=O)N[C@@H](CC(C)C)C(=O)N[C@@H](CC(C)C)C(N)=O [FLKILKKLL]	–
6 µM (≈ 9.9 µg/mL)	3 µM (≈ 4.95 µg/mL)	–	CC(C)[C@H](NC(=O)[C@H](CCCN=C(N)N)NC(=O)[C@@H](N)Cc1ccccc1)C(=O)N[C@H](C(=O)N[C@@H](Cc1c[nH]c2ccccc12)C(=O)N[C@@H](CCCN=C(N)N)C(=O)N[C@H](C(=O)N[C@@H](CCCCN)C(=O)N[C@@H](Cc1c[nH]c2ccccc12)C(=O)N[C@@H](Cc1c[nH]c2ccccc12)C(=O)N[C@@H](CCCCN)C(=O)NCC(N)=O)[C@@H](C)O)[C@@H](C)O [FRVTWRTKWWKG]	–
> 70 µM	> 70 µM	–	CC[C@H](C)[C@H](NC(=O)[C@H](CCCN=C(N)N)NC(=O)[C@@H](N)CCCCN)C(=O)N[C@@H](CCCCN)C(=O)N[C@H](C(=O)N[C@@H](CC(C)C)C(=O)N[C@@H](CC(C)C)C(N)=O)[C@@H](C)O [KRIKTLL]	–
> 55.3 µM	–	> 55.3 µM	CC[C@H](C)[C@H](NC(=O)[C@H](CCCCN)NC(=O)[C@H](CCCCN)NC(=O)[C@@H](N)CCC(N)=O)C(=O)N[C@@H](CCCN=C(N)N)C(=O)N[C@H](C(=O)N[C@@H](CCCN=C(N)N)C(=O)N[C@@H](C)C(=O)N[C@@H](CO)C(=O)N[C@@H](C)C(=O)O)C(C)C [QKKIRVRASA]	MIC [3]: > 55.3 µM
13.5 µM (≈ 16 µg/mL)	–	13.5 µM (≈ 16 µg/mL)	CC[C@H](C)[C@H](NC(=O)[C@H](CCCCN)NC(=O)[C@H](CCCCN)NC(=O)[C@@H](N)CCC(N)=O)C(=O)N[C@@H](CCCN=C(N)N)C(=O)N[C@H](C(=O)N[C@@H](CCCN=C(N)N)C(=O)N[C@@H](CC(C)C)C(=O)N[C@@H](C)C(=O)N[C@@H](C)C(=O)O)C(C)C [QKKIRVRLAA]	MIC [3]: > 54.1 µM
> 100 µM	–	> 100 µM	CSCC[C@H](NC(=O)[C@H](CCCCN)NC(=O)[C@H](CCCCN)NC(=O)[C@H](CCCCN)NC(=O)[C@@H](N)CCCN=C(N)N)C(=O)N[C@@H](CCCCN)C(=O)N[C@@H](CCCCN)C(=O)N[C@@H](C)C(=O)N[C@@H](CC(C)C)C(=O)N[C@@H](CCC(N)=O)C(=O)N[C@@H](Cc1ccc(O)cc1)C(N)=O [RKKKMKKALQY]	–
–	–	32 µM (≈ 31 µg/mL)	CC(C)C[C@H](NC(=O)[C@H](CC(C)C)NC(=O)[C@H](CC(N)=O)NC(=O)[C@H](CCCCN)NC(=O)[C@H](CC(C)C)NC(=O)[C@H](CC(N)=O)NC(=O)[C@@H](N)C(C)C)C(=O)N[C@@H](CCCN=C(N)N)C(=O)O [VNLKNLLR]	–
